What was measured:
[1] = Solubility of Fe(III)BBNH in water and organic solvents; type: physicochemical; conditions: room temperature, 180 min
Method: One mg of Fe(III)BBNH was dissolved in 1 ml of dimethyl sulfoxide (DMSO). Aliquots of the solution were further diluted with DMSO to achieve the following final concentrations: […]. Each concentration point of was prepared in triplicates. The aliquots […] of the samples were transferred in 96-well plate. The optical densities (OD) at […] of all the samples were measured by using Microplate Reader.
The samples of Fe(III)BBNH (1 mg each) were placed in 1 ml of the following solvents:
The samples were intensively agitated during three hours at room temperature using a rotator. After that the samples were centrifuged at 10,000 g for 10 minutes. The supernatants (500 μl each) were separated and then were dried by using a speed-vac centrifuge. Each sample was then dissolved in 500 μl DMSO and aliquots (50 μl each) were transferred to 96-well plate. The optical densities were determined at λ400 nm for using microplate reader. Concentrations of the test compound in the samples were then determined by using the above shown calibration data. Each concentration of the test compound was measured in triplicates.

[2] = Solubility of Fe(III)BBNH in organic solutions with various salts and pH; type: physicochemical
Method: The samples of Fe(III)BBNH (1 mg of each) were placed in 1 ml of following range of solvents:
The samples were intensively agitated during three hours at room temperature using a rotator. After that the samples were centrifuged at 10,000 g for 10 min. The supernatants (500 μl each) were separated and then dried by using a speed-vac centrifuge. Each sample was dissolved in 500 μl DMSO and the aliquots (50 μl each) were transferred to 96-well plate. The optical densities were determined at λ400 nm using a microplate reader. Fe(III)BBNH concentrations in the samples were then determined by using the calibration shown in Example 4A. Each concentration of Fe(III)BBNH was analyzed in triplicates.

[3] = Solubility in a water medium (general statement); type: physicochemical
[4] = system: HIV-1 infection of MT2 cells; assay: Inhibition of HIV-1 infection of uninfected MT2 cells; type: cell-based; conditions: compound in DMSO, 30 min before HIV
Method: BBNH and Fe(III)-BBNH complex at various concentrations were examined for the ability to inhibit HIV-1 infection of uninfected MT2 cells. Aliquots of a solution of the compounds in dimethyl sulfoxide were added to uninfected MT2 cells (2×10^5 cells/ml) in RPMI medium containing 10% fetal bovine serum to provide defined final concentrations of test compound. The cells and test compounds were incubated for 30 minutes at 37° C., then inoculated with a suspension of HIV virions. The cells, test compounds and HIV were incubated for 18 h at 37° C., then the cells were collected by centrifugation, washed, and resuspended in RPMI medium containing 10% fetal bovine serum and containing the same concentration of test compound as initially employed. The cells were then cultured at 37° C. (with culture medium changes as required). HIV infection was assessed by microscopic examination of HIV-induced cytopathicity (syncytium) and/or by analysis of HIV p24 antigen levels in the culture supernatants.

[5] = Solubility of Fe(III)BBNH in Pluronic P85 formulations; type: physicochemical
Method: Various amounts of Fe(III)BBNH were dissolved in 200 μl dimethyl formamide and aliquots (20 μl each) were mixed with the equal volumes of Pluronic P85 solutions of various concentrations in methanol. The water solution of sodium acetate (10 μl) was added to each sample to the final concentration of the salt of 60 mM. The samples were dried by using a speed-vac centrifuge. Each sample was dissolved in 100 μl of 10% Pluronic P85 solution in water. The samples were intensively agitated during two hours at room temperature using a rotator. After that the samples were centrifuged at 10,000 g for 10 min. The supernatants were separated and then diluted with 10% Pluronic P85 solution in water to fit the range of calibration curve. The aliquots (50 μl each) were transferred to 96-well plate and analyzed. The optical densities were determined at λ400 nm using a microplate reader. Fe(III)BBNH concentrations in the samples were then determined by using the calibration shown in Example 4A. Each concentration of Fe(III)BBNH was analyzed in triplicates. Each concentration of Fe306 was measured in triplicates.

## CC(C)(C)c1ccc(C(=O)NN=Cc2c(O)ccc3ccccc23)cc1.C[O-].[Cl-].[Cl-].[Fe+3] [Fe(III)-BBNH]
[1]; Acetonitrile 100%
  Solubility of Fe(III)BBNH dissolved in the sample: 163.6 µg/mL
[1]; Acetonitrile: 10% H2O
  Solubility of Fe(III)BBNH dissolved in the sample: 491.4 µg/mL
[1]; Acetonitrile: 20% H2O
  Solubility of Fe(III)BBNH dissolved in the sample: 293.9 µg/mL
[1]; DMFA 100%
  Solubility of Fe(III)BBNH dissolved in the sample: 1000.2 µg/mL
[1]; DMSO 100%
  Solubility of Fe(III)BBNH dissolved in the sample: 1001.4 µg/mL
[1]; Methanol 100%
  Solubility of Fe(III)BBNH dissolved in the sample: 505.6 µg/mL
[1]; Methanol: 10% H2O
  Solubility of Fe(III)BBNH dissolved in the sample: 206.7 µg/mL
[1]; Water 100%
  Solubility of Fe(III)BBNH dissolved in the sample: < 0.001 µg/mL
[2]; Acetonitrile:10% Ammonium Acetate (0.01 M) pH 3.0
  Concentration of Fe306 dissolved in the sample: 125.7 µg/mL
[2]; Acetonitrile:10% Ammonium Acetate (0.01 M) pH 5.0, 180 min
  Concentration of Fe306 dissolved in the sample: 223.9 µg/mL
[2]; Acetonitrile:10% Ammonium Acetate (0.01 M) pH 7.0, 180 min
  Concentration of Fe306 dissolved in the sample: 304.7 µg/mL
[2]; Acetonitrile:10% Ammonium Formate (0.01 M) pH 3.0
  Concentration of Fe306 dissolved in the sample: 172.9 µg/mL
[2]; Acetonitrile:10% Ammonium Formate (0.01 M) pH 5.0, 180 min
  Concentration of Fe306 dissolved in the sample: 233.6 µg/mL
[2]; Acetonitrile:10% Ammonium Formate (0.01 M) pH 6.2, 180 min
  Concentration of Fe306 dissolved in the sample: 200.1 µg/mL
[2]; Methanol:10% 0.01 M phosphate buffer pH 3.0
  Concentration of Fe306 dissolved in the sample: 14.4 µg/mL
[2]; Methanol:10% 0.01 M phosphate buffer pH 5.0, 180 min
  Concentration of Fe306 dissolved in the sample: 14.9 µg/mL
[2]; Methanol:10% Ammonium Acetate (0.01 M) pH 3.0
  Concentration of Fe306 dissolved in the sample: 26.2 µg/mL
[2]; Methanol:10% Ammonium Acetate (0.01 M) pH 5.0, 180 min
  Concentration of Fe306 dissolved in the sample: 76.6 µg/mL
[2]; Methanol:10% Ammonium Acetate (0.01 M) pH 7.0, 180 min
  Concentration of Fe306 dissolved in the sample: 94.4 µg/mL
[2]; Methanol:10% Ammonium Formate (0.01 M) pH 3.0
  Concentration of Fe306 dissolved in the sample: 50.9 µg/mL
[2]; Methanol:10% Ammonium Formate (0.01 M) pH 5.0, 180 min
  Concentration of Fe306 dissolved in the sample: 43.4 µg/mL
[2]; Methanol:10% Ammonium Formate (0.01 M) pH 6.2, 180 min
  Concentration of Fe306 dissolved in the sample: 31.2 µg/mL
[3]
  solubility in a water medium: practically insoluble in a water medium
[4]
  IC50: > 50 µM
[5]; 1% P85, 1 mg/ml added, 120 min
  Solubility: 1120 µg/mL
[5]; 1% P85, 2 mg/ml added
  Solubility: 2120 µg/mL
[5]; 1% P85, 5 mg/ml added
  Solubility: 1400 µg/mL
[5]; 1% P85, 10 mg/ml added, 120 min
  Solubility: 1390 µg/mL
[5]; 1% P85, 20 mg/ml added, 120 min
  Solubility: 730 µg/mL
[5]; 1% P85, 30 mg/ml added, 120 min
  Solubility: 10 µg/mL
[5]; 1% P85, 40 mg/ml added, 120 min
  Solubility: 30 µg/mL
[5]; 2% P85, 1 mg/ml added, 120 min
  Solubility: 1130 µg/mL
[5]; 2% P85, 2 mg/ml added
  Solubility: 2160 µg/mL
[5]; 2% P85, 5 mg/ml added
  Solubility: 5020 µg/mL
[5]; 2% P85, 10 mg/ml added, 120 min
  Solubility: 3100 µg/mL
[5]; 2% P85, 20 mg/ml added, 120 min
  Solubility: 2710 µg/mL
[5]; 2% P85, 30 mg/ml added, 120 min
  Solubility: 2390 µg/mL
[5]; 2% P85, 40 mg/ml added, 120 min
  Solubility: 420 µg/mL
[5]; 3% P85, 1 mg/ml added, 120 min
  Solubility: 1040 µg/mL
[5]; 3% P85, 2 mg/ml added
  Solubility: 2240 µg/mL
[5]; 3% P85, 5 mg/ml added
  Solubility: 5060 µg/mL
[5]; 3% P85, 10 mg/ml added, 120 min
  Solubility: 7420 µg/mL
[5]; 3% P85, 20 mg/ml added, 120 min
  Solubility: 5150 µg/mL
[5]; 3% P85, 30 mg/ml added, 120 min
  Solubility: 5140 µg/mL
[5]; 3% P85, 40 mg/ml added, 120 min
  Solubility: 2960 µg/mL
[5]; 5% P85, 1 mg/ml added, 120 min
  Solubility: 1090 µg/mL
[5]; 5% P85, 2 mg/ml added
  Solubility: 2080 µg/mL
[5]; 5% P85, 5 mg/ml added
  Solubility: 5090 µg/mL
[5]; 5% P85, 10 mg/ml added, 120 min
  Solubility: 10510 µg/mL
[5]; 5% P85, 20 mg/ml added, 120 min
  Solubility: 10360 µg/mL
[5]; 5% P85, 30 mg/ml added, 120 min
  Solubility: 12250 µg/mL
[5]; 5% P85, 40 mg/ml added, 120 min
  Solubility: 10480 µg/mL
[5]; 10% P85, 1 mg/ml added, 120 min
  Solubility: 1080 µg/mL
[5]; 10% P85, 2 mg/ml added
  Solubility: 2060 µg/mL
[5]; 10% P85, 5 mg/ml added
  Solubility: 5160 µg/mL
[5]; 10% P85, 10 mg/ml added, 120 min
  Solubility: 10710 µg/mL
[5]; 10% P85, 20 mg/ml added, 120 min
  Solubility: 19060 µg/mL
[5]; 10% P85, 30 mg/ml added, 120 min
  Solubility: 22870 µg/mL
[5]; 10% P85, 40 mg/ml added, 120 min
  Solubility: 26240 µg/mL

Source: patent US6218438A, “Copolymer compositions for treating viral infections” (Supratek Pharma, Inc., priority 1999, dated 2001)
